ChEMBL document CHEMBL1125343, “Molecular yardsticks. Rigid probes to define the spatial dimensions of the benzodiazepine receptor binding site” (J Med Chem, 1992)
Calls of active or inactive are those of the source. The calls are words filed in the database; no cut-off is given here.

Legend:
[1] = Solubility in water.; format: physicochemical; settings: read-out: S
[2] = target: GABA-A receptor; anion channel; assay: In vitro affinity at the Benzodiazepine receptor (BzR) is its ability to displace [3H]diazepam from BzR.; format: protein-complex assay, Rattus norvegicus
[3] = system: Mus musculus; assay: Dose required to induce convulsions in 50% of the mice.(In vivo convulsant activity.)
[4] = system: Rattus norvegicus; assay: In vivo proconvulsant activity in rats; format: functional
[5] = system: Mus musculus; assay: Dose required to induce convulsions in 50% of the mice that had been previously treated by a subconvulsant dose of pentylenetetrazole (40 mg/kg)
[6] = system: Monkey; assay: Anxiogenic activity in vivo in Rhesus monkeys; Potent activity; format: functional, organism-based; settings: Cercopithecidae
[7] = system: Mus musculus; assay: Dose required to induce convulsions in 50% of the mice.(In vivo proconvulsant activity.)
[8] = species on record: Rattus norvegicus; assay: Dose required to induce convulsions in 50% of the rats; format: functional
[9] = system: Monkey; assay: Anxiogenic activity in vivo in Rhesus monkeys; format: functional; settings: Cercopithecidae, in Macaca mulatta
[10] = system: Mus musculus; assay: In vivo dose required to induce convulsions in 50% of the mice previously treated by a subconvulsant dose of pentylenetetrazole (40 mg/kg)

With CCc1c(C(=O)OC)[nH]cc2nc3cc(OC)c(OC)cc3c1-2.Cl the solubility [1] was less than 200 µg/mL, the IC50 [2] was 1 nM and the ED50 [3] was 4 mg/kg.
Compound CCOc1cc2c3ccccc3nc-2c[nH]1.Cl has an ED50 [4] of 7 mg/kg, an ED50 [5] of 7 mg/kg and a solubility [1] of 12000 µg/mL. The IC50 [2] was 24 nM and the ED50 [6] was “Active”.
In the case of c1ccc2c(c1)ccc1c3[nH]cc4nc5ccccc5c-4c3[nH]c21, the IC50 [2] is reported as greater than 125 nM.
With Cl.c1cnc2c3[nH]cc4[nH]c5ccccc5c4c-3nc2c1 the solubility [1] was 11000 µg/mL and the IC50 [2] was 10.2 nM.
c1ccc2c(c1)ccn1c2nc2c3c4ccccc4nc-3c[nH]c21 gave an IC50 [2] greater than 2000 nM.
For Cl.c1ccc2c(c1)[nH]c1c2ncc2[nH]c3ccccc3c21, the ED50 [7] was 15.5 mg/kg and the solubility [1] was less than 2000 µg/mL.
c1ccc2c(c1)[nH]c1cnc3c(nc4ccccn43)c12 gave an IC50 [2] of 39 nM.
Compound CCOC(=O)c1cc2c(cn1)[nH]c1ccccc12 has an ED50 [8] of 3.2 mg/kg, an ED50 [4] of 75 mg/kg and a solubility [1] of less than 200 µg/mL. The ED50 [9] was 2.5 mg/kg.
In the case of c1ccc2c(c1)ccc1[nH]c3c4c5ccccc5nc-4c[nH]c3c12, the IC50 [2] is reported as greater than 125 nM.
With CCOC(=O)c1cc2c3ccccc3nc-2c[nH]1.Cl the solubility [1] was 1000 µg/mL.
Compound c1ccc2c(c1)cnn1c2nc2c3c4ccccc4nc-3c[nH]c21 has an IC50 [2] of 200 nM.
For Cl.c1ccc2c(c1)[nH]c1c[nH]c3c4cccnc4nc-3c12, the solubility [1] was 7600 µg/mL, the ED50 [10] was 11 mg/kg and the IC50 [2] was 10.6 nM.
Work on c1ccc2c(c1)ccc1nc3c4c5ccccc5nc-4c[nH]c3n12 yielded an IC50 [2] greater than 3000 nM.
Work on c1ccc2c3c4ncc5[nH]c6ccccc6c5c4nc-3c[nH]c2c1 yielded an IC50 [2] greater than 1000 nM.
Cl.c1ccc2c(c1)[nH]c1c[nH]c3c4ccncc4nc-3c12 showed a solubility [1] of 13000 µg/mL, an ED50 [10] of 25 mg/kg and an IC50 [2] of 51.5 nM.
